In ChEMBL document CHEMBL1201862, “PubChem BioAssay data set” (2004):
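Interpolation was linear, between the two tested concentrations surrounding the appropriate level; five concentrations were tested over 48 hours in 96-well plates. GI50 = concentration required for 50% inhibition of growth.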 Active and inactive are the calls of the source. Rule as the data show it: active = GI50 up to about 1.1 µM and inactive = higher. Where a SMILES comes first, the peptide text is derived from it. The star is where a group is joined. Boc = CC(C)(C)OC(=O)*; tBu = CC(C)(C)*

Legend:
Assay in all cases: NCI-60 cell line screen, 48 h
SK-MEL-5 = tested on: SK-MEL-5
A549 = tested on: A549
M14 = tested on: M14
MCF7 = tested on: MCF7
NCI-H23 = tested on: NCI-H23
UO-31 = tested on: UO-31
EKVX = tested on: EKVX
786-0 = tested on: 786-0
OVCAR-5 = tested on: OVCAR-5
SF-295 = tested on: SF-295
HOP-62 = tested on: HOP-62
CCRF-CEM = tested on: CCRF-CEM
IGROV-1 = tested on: IGROV-1
HCC 2998 = tested on: HCC 2998
COLO 205 = tested on: COLO 205
MDA-MB-435 = tested on: MDA-MB-435
CAKI-1 = tested on: CAKI-1
Malme-3M = tested on: Malme-3M
BT-549 = tested on: BT-549
NCI-H522 = tested on: NCI-H522

Measured: GI50

CCOC(=O)C(NC(=O)c1ccccc1)(Nc1ccc(S(=O)(=O)Nc2ncccn2)cc1)C(F)(F)F (stereo unspecified)
inactive: SK-MEL-5 > 100 µM | A549 > 100 µM | M14 > 100 µM | MCF7 > 100 µM | NCI-H23 > 100 µM | UO-31 > 100 µM | EKVX > 100 µM | 786-0 > 100 µM | OVCAR-5 > 100 µM | SF-295 > 100 µM | HOP-62 > 100 µM | CCRF-CEM > 100 µM | IGROV-1 > 100 µM | HCC 2998 > 100 µM | COLO 205 > 100 µM | MDA-MB-435 > 100 µM | CAKI-1 > 100 µM | Malme-3M > 100 µM | BT-549 > 100 µM

COc1ccc(NC(=O)CC(=O)N2N=C(C)C(/N=N\c3ccc(S(=O)(=O)c4ccc(/N=N/C5C(=O)N(C(=O)CC(=O)Nc6ccc(OC)cc6)N=C5C)cc4)cc3)C2=O)cc1 (stereo unspecified)
inactive: SK-MEL-5 63 µM | A549 > 100 µM | M14 > 100 µM | MCF7 > 100 µM | NCI-H23 > 100 µM | UO-31 > 100 µM | EKVX > 100 µM | 786-0 > 100 µM | SF-295 > 100 µM | HOP-62 45.6 µM | CCRF-CEM > 100 µM | IGROV-1 55.1 µM | HCC 2998 > 100 µM | COLO 205 > 100 µM | NCI-H522 > 100 µM | MDA-MB-435 > 100 µM | CAKI-1 > 100 µM | Malme-3M > 100 µM | BT-549 > 100 µM

Cc1ccc(C(=O)C#Cc2cn(C3CC(O)C(CO)O3)c(=O)[nH]c2=O)cc1 (stereo unspecified)
inactive: SK-MEL-5 > 100 µM | A549 > 100 µM | M14 53.1 µM | MCF7 47.6 µM | NCI-H23 > 100 µM | UO-31 > 100 µM | EKVX > 100 µM | 786-0 > 100 µM | SF-295 > 100 µM | HOP-62 > 100 µM | IGROV-1 > 100 µM | HCC 2998 > 100 µM | COLO 205 38.6 µM | NCI-H522 11.5 µM | MDA-MB-435 > 100 µM | CAKI-1 90.2 µM | Malme-3M 15.4 µM | BT-549 > 100 µM

COc1ccc2c(c1OC)C(=O)N/C2=C\c1c(CCN(C)C)cc2c(c1OC)OCO2
inactive: SK-MEL-5 42.4 µM | A549 > 100 µM | M14 > 100 µM | MCF7 > 100 µM | NCI-H23 > 100 µM | EKVX > 100 µM | 786-0 > 100 µM | OVCAR-5 > 100 µM | SF-295 43.7 µM | HOP-62 > 100 µM | CCRF-CEM > 100 µM | IGROV-1 38.6 µM | HCC 2998 > 100 µM | COLO 205 46.2 µM | NCI-H522 37.6 µM | MDA-MB-435 31.5 µM | Malme-3M 62.8 µM | BT-549 > 100 µM

N#C/C(=C1\N=C(c2ccccc2O)Oc2ccccc21)c1ccc([N+](=O)[O-])cc1
inactive: SK-MEL-5 > 100 µM | A549 > 100 µM | M14 > 100 µM | MCF7 > 100 µM | NCI-H23 > 100 µM | UO-31 > 100 µM | EKVX > 100 µM | 786-0 93.8 µM | OVCAR-5 > 100 µM | SF-295 72.3 µM | HOP-62 33.8 µM | CCRF-CEM > 100 µM | IGROV-1 88.9 µM | HCC 2998 > 100 µM | COLO 205 > 100 µM | MDA-MB-435 > 100 µM | CAKI-1 > 100 µM | Malme-3M > 100 µM | BT-549 > 100 µM

CNN1C(=O)c2c(C)c(C)c(C#N)c(N)c2C1=O
inactive: SK-MEL-5 > 100 µM | A549 > 100 µM | M14 > 100 µM | MCF7 > 100 µM | UO-31 > 100 µM | EKVX > 100 µM | 786-0 > 100 µM | OVCAR-5 > 100 µM | SF-295 > 100 µM | CCRF-CEM > 100 µM | IGROV-1 > 100 µM | HCC 2998 > 100 µM | COLO 205 > 100 µM | NCI-H522 > 100 µM | MDA-MB-435 > 100 µM | CAKI-1 > 100 µM | Malme-3M > 100 µM | BT-549 > 100 µM

COCCn1cnc2c(Cl)nc(Nc3ccccc3)nc21
inactive: SK-MEL-5 38.7 µM | A549 48.8 µM | M14 26.3 µM | MCF7 36.4 µM | NCI-H23 33.3 µM | EKVX 21.3 µM | 786-0 69.2 µM | OVCAR-5 > 100 µM | SF-295 > 100 µM | HOP-62 59.7 µM | CCRF-CEM 19.3 µM | IGROV-1 21.2 µM | HCC 2998 17.3 µM | COLO 205 76.2 µM | MDA-MB-435 18.1 µM | Malme-3M > 10 µM | BT-549 27.4 µM

C/C=C1/CN2CCC34c5ccccc5N(C)C23C2CC1C4(C(=O)OC)C(O)O2 (stereo unspecified)
inactive: SK-MEL-5 > 100 µM | A549 > 100 µM | M14 > 100 µM | MCF7 > 100 µM | NCI-H23 > 100 µM | UO-31 > 100 µM | EKVX > 100 µM | 786-0 > 100 µM | OVCAR-5 > 100 µM | SF-295 > 100 µM | HOP-62 > 100 µM | CCRF-CEM > 100 µM | IGROV-1 > 100 µM | HCC 2998 > 100 µM | COLO 205 > 100 µM | NCI-H522 > 100 µM | MDA-MB-435 > 100 µM | CAKI-1 > 100 µM | BT-549 > 100 µM

Cc1ccc(NC(=O)CC(=O)N2N=C(N(c3ccccc3)c3ccccc3)CC2c2ccccc2)cc1 (stereo unspecified)
inactive: SK-MEL-5 > 100 µM | A549 > 100 µM | M14 > 100 µM | MCF7 > 100 µM | NCI-H23 > 100 µM | UO-31 > 100 µM | EKVX > 100 µM | 786-0 > 100 µM | OVCAR-5 > 100 µM | SF-295 > 100 µM | HOP-62 > 100 µM | CCRF-CEM > 100 µM | IGROV-1 > 100 µM | HCC 2998 > 100 µM | COLO 205 > 100 µM | NCI-H522 > 100 µM | MDA-MB-435 > 100 µM | CAKI-1 > 100 µM | BT-549 > 100 µM

Cc1ccc(/N=N/c2c(C)c(C#N)c(=S)n(C3OC(CO)C(O)C(O)C3O)c2-c2ccccc2)cc1 (stereo unspecified)
inactive: SK-MEL-5 11.2 µM | A549 32 µM | M14 14.6 µM | MCF7 18.2 µM | NCI-H23 16.5 µM | UO-31 33.5 µM | 786-0 21 µM | OVCAR-5 28.9 µM | SF-295 20.5 µM | HOP-62 24.9 µM | CCRF-CEM 11.5 µM | IGROV-1 31.3 µM | HCC 2998 41.1 µM | COLO 205 25.1 µM | MDA-MB-435 6.18 µM | CAKI-1 25.7 µM | Malme-3M 24.9 µM | BT-549 19.6 µM

COc1ccc(-c2cc(C3CC3)nc(SCC(=O)O)c2C#N)cc1
inactive: SK-MEL-5 > 100 µM | A549 44 µM | M14 > 100 µM | MCF7 94.4 µM | NCI-H23 > 100 µM | UO-31 1.85 µM | EKVX > 100 µM | 786-0 > 100 µM | OVCAR-5 > 100 µM | SF-295 60.3 µM | HOP-62 > 100 µM | CCRF-CEM 57.8 µM | IGROV-1 > 100 µM | HCC 2998 > 100 µM | COLO 205 > 100 µM | NCI-H522 25.1 µM | MDA-MB-435 > 100 µM | CAKI-1 > 100 µM | BT-549 > 100 µM

CN1CCN(C(=S)N(C)C(=O)c2ccco2)CC1
inactive: SK-MEL-5 > 100 µM | A549 > 100 µM | M14 > 100 µM | MCF7 > 100 µM | NCI-H23 > 100 µM | UO-31 > 100 µM | 786-0 > 100 µM | OVCAR-5 > 100 µM | SF-295 > 100 µM | CCRF-CEM > 100 µM | IGROV-1 > 100 µM | HCC 2998 > 100 µM | COLO 205 > 100 µM | NCI-H522 > 100 µM | MDA-MB-435 > 100 µM | Malme-3M > 100 µM | BT-549 > 100 µM

CCOC(=O)c1nc2ccc(C(F)(F)F)cc2[nH]c1=O
inactive: SK-MEL-5 > 100 µM | A549 > 100 µM | M14 > 100 µM | MCF7 > 100 µM | NCI-H23 > 100 µM | UO-31 > 100 µM | 786-0 > 100 µM | OVCAR-5 > 100 µM | SF-295 > 100 µM | HOP-62 > 100 µM | CCRF-CEM > 100 µM | IGROV-1 > 100 µM | HCC 2998 > 100 µM | COLO 205 > 100 µM | MDA-MB-435 > 100 µM | CAKI-1 > 100 µM | BT-549 > 100 µM

CC(OC(C)(C)C)C(NC(=O)C(N)CCCCNC(=O)OC(C)(C)C)C(=O)NC(Cc1ccccc1)C(=O)O (stereo unspecified) (H-Lys(Boc)-Thr(tBu)-Phe-OH; configuration not given here)
inactive: SK-MEL-5 > 100 µM | A549 > 100 µM | M14 > 100 µM | MCF7 > 100 µM | NCI-H23 > 100 µM | UO-31 > 100 µM | EKVX > 100 µM | 786-0 > 100 µM | OVCAR-5 > 100 µM | SF-295 > 100 µM | HOP-62 > 100 µM | CCRF-CEM > 100 µM | IGROV-1 > 100 µM | HCC 2998 > 100 µM | COLO 205 > 100 µM | MDA-MB-435 > 100 µM | CAKI-1 > 100 µM | Malme-3M > 100 µM | BT-549 > 100 µM
